The source made the active and inactive calls.
Key:
[1] = biological target: DNA damage-inducible transcript 3 protein (Mus musculus, UniProt P35639); type: functional, Cricetulus griseus
cells [2] = type: functional, cell-based
cells [3] = type: functional, cell-based; remark: listed apart in the source
[4] = biological target: Potassium voltage-gated channel subfamily KQT member 2 (Rattus norvegicus, UniProt O88943); assay: potentiation of rat KCNQ2 current – cell-based, retigabine-insensitive compounds, dose response (AID 2654); type: functional
Vero [5] = assay: cells; type: functional, cell-based; conditions: Chlorocebus sabaeus
cells [6] = assay: cells
Vero [7] = assay: cells; type: functional; conditions: Chlorocebus sabaeus
[8] = viability of uninfected HEp-2 cells – cell-based, HTS, cytotoxicity control for RSV inhibitor project, dose response (AID 2410); type: functional; conditions: human respiratory syncytial virus
Mucolipin-3 = biological target: T1, Mucolipin-3 (Homo sapiens, UniProt Q8TDD5); assay: Dose response cell-based high-throughput screening assay for agonists of the transient receptor potential channel ML3 (TRPML3). [Related pubchem assays: 1526, 1424, 1448 ]; type: functional
T1 sequence (Q8TDD5 whole entry): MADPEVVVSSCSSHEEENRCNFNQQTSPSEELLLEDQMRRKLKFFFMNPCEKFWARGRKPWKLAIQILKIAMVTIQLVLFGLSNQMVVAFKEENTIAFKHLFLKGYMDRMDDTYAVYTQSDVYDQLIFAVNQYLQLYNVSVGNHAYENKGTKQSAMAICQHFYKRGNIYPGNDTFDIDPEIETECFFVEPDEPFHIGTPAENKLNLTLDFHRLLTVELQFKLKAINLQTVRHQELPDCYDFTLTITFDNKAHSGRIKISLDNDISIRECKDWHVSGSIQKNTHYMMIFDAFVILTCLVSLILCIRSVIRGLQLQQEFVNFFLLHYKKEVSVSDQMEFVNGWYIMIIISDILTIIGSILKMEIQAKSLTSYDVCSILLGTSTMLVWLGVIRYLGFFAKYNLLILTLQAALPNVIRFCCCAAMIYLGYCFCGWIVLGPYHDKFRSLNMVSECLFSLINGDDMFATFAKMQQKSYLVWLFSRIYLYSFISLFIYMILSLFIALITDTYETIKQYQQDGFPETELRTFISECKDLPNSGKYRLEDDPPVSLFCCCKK

Ion channel NompC = Ion channel NompC (Danio rerio, UniProt Q7T1G6); assay: Fluorescence counterscreen assay for TRPML3 agonists: dose response cell-based high-throughput screening assay to identify agonists of the transient receptor potential channel N1 (TRPN1). [Related pubchem assays: 1526, 1424, 1448 ]; type: functional
[9] = loss of viability in HepG2 cells – cell-based, CellTiter-Glo, cherry-picked, cytotoxicity control for Shn3 inhibitor project, dose response (AID 624134); type: functional
[10] = reduction of Shn3 3'UTR-driven luciferase in osteoblasts – cell-based, Clone20 osteoblasts, firefly luciferase, cherry-picked, dose response (AID 624132); type: functional;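 further: firefly luciferase luminescence from reporter carrying the Shn3 3'UTR in osteoblasts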
[11] = non-specific 3'UTR reporter inhibition in Clone20-Shn3RL – cell-based, Renilla luciferase, cherry-picked, counter-screen for Shn3 inhibitor project, dose response (AID 624133); type: functional
[12] = biological target: Luciferin 4-monooxygenase (Photinus pyralis, UniProt P08659); assay: Counter Screen for Luciferase-based Assay Positives. [Related pubchem assays: 620, 618, 411 ]
HT-1080 = assay: HT1080 cell viability loss – fluorescence readout (AID 620); type: functional, cell-based; conditions: Homo sapiens
[13] = biological target: G-protein coupled receptor 55 (Homo sapiens, UniProt Q9Y2T6); assay: inhibition of LPI-stimulated GPR55 beta-arrestin translocation – imaging, U2OS, beta-arrestin-GFP, LPI agonist, primary screen (AID 2013); type: functional;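 further: antagonist potency measured as reduced agonist-driven arrestin aggregation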
HEK293 [14] = assay: cells; type: functional, cell-based; conditions: Homo sapiens
[15] = biological target: DNA dC->dU-editing enzyme APOBEC-3G (Homo sapiens, UniProt Q9HC16); type: functional;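 further: Dose-response counterscreen measuring inhibition of APOBEC3G DNA deaminase activity, run while confirming APOBEC3A inhibitors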
HEK293 [16] = assay: NOD2 signaling inhibitors in MDP-stimulated cells, cell-based, uHTS, luminescence (AID 2001); type: functional; conditions: Homo sapiens
HEK293 [17] = assay: cells; type: functional, cell-based; conditions: Homo sapiens; remark: listed apart in the source
[18] = Trypanosoma cruzi growth suppression in host cells – NIH3T3 host cells, beta-gal luminescence, confirmation (AID 2044); type: functional, cell-based;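 further: intracellular parasites grown in NIH/3T3 mouse fibroblasts as host cells; luminescent beta-galactosidase reporter signal from transgenic T. cruzi replicating inside host cells; inhibitors lower the luminescence signal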
[19] = NIH-3T3 fibroblast cytotoxicity, dose response, cytotoxicity control, cell-based, fluorescence, Alamar Blue, secondary assay (AID 2327); type: functional;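 further: NIH-3T3 mouse fibroblasts cultured with fluconazole at 8 µg/mL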
[20] = HEK-293T viability loss after treatment – luminescence, T-cell screen hits, cytotoxicity control for TCR NF-kB inhibitor project, dose response (AID 489026); type: functional, cell-based;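 further: cells exposed to compound about 14 hours before the viability readout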
[21] = fluconazole-exposed Candida albicans growth modulators – fluorescence, retest, confirmation (AID 2467); type: functional, cell-based
[22] = biological target: DNA dC->dU-editing enzyme APOBEC-3A (Homo sapiens, UniProt P31941); assay: Dose Response confirmation of small molecule APOBEC3A DNA Deaminase Inhibitors via a fluorescence-based single-stranded DNA deaminase assay. [Related pubchem assays (depositor defined):AID493011, AID493024]; type: functional
[23] = biological target: FAD-linked sulfhydryl oxidase ALR (Homo sapiens, UniProt P55789); assay: ALR-catalysed DTT oxidation blockers – biochemical, H2O2 detection, luminescence, cherry-pick, dose response (AID 493248)
HEK293 [24] = assay: inhibition of NOD1-driven NF-kB reporter – cell-based, luminescence, uHTS, primary screen (AID 1578); type: functional; conditions: Homo sapiens
[25] = NIH3T3 cell viability loss – ATP luminescence, mouse fibroblasts, counter-screen, dose response (AID 2010); type: functional, cell-based;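 further: cells exposed to compound for about 90 hours before reading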
[26] = biological target: T2, Histone-lysine N-methyltransferase NSD2 (Homo sapiens, UniProt O96028); type: biochemical
T2 sequence (O96028 whole entry): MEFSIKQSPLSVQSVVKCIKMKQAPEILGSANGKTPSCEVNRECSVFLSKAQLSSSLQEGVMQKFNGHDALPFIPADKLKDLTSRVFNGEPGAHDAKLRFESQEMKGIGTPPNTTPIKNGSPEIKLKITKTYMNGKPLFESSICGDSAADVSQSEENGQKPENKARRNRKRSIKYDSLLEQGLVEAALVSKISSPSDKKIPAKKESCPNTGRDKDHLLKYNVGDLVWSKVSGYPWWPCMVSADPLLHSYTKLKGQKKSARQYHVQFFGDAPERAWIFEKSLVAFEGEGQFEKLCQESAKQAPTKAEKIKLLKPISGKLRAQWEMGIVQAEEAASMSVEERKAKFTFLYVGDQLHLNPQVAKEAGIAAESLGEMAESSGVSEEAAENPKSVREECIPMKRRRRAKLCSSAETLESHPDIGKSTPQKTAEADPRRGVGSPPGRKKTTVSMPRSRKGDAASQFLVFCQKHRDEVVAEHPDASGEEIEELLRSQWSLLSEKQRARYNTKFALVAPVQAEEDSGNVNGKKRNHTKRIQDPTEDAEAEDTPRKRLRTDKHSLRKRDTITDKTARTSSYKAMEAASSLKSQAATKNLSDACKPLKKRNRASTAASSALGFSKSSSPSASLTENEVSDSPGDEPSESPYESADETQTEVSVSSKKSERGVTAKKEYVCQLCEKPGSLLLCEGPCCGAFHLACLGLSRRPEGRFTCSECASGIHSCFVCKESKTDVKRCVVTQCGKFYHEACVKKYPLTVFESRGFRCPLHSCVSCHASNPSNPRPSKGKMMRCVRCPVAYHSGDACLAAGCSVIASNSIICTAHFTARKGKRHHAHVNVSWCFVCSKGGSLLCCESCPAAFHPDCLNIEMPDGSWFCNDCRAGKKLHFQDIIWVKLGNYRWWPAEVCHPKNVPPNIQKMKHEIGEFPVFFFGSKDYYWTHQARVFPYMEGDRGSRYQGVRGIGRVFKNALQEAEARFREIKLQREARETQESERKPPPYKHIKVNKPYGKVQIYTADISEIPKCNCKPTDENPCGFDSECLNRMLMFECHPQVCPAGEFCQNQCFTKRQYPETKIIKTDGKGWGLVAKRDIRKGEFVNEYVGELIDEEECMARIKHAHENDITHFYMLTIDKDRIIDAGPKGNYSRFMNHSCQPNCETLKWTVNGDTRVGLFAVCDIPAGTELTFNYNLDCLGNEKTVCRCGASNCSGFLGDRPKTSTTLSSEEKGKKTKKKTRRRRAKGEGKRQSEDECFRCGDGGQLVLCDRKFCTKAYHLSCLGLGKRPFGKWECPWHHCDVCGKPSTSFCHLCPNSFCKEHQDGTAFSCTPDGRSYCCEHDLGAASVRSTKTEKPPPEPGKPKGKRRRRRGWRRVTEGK

[27] = biological target: T3, RNA-binding protein pos-1 (Caenorhabditis elegans, UniProt G5EF15); assay: disruptors of C. elegans POS-1 RNA interaction – biochemical, fluorescence polarization, dose response (AID 1964);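 further: purified POS-1 fused to maltose binding protein made in E. coli; potency of compounds blocking POS-1 binding to fluorescent RNA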
T3 sequence (G5EF15 whole entry): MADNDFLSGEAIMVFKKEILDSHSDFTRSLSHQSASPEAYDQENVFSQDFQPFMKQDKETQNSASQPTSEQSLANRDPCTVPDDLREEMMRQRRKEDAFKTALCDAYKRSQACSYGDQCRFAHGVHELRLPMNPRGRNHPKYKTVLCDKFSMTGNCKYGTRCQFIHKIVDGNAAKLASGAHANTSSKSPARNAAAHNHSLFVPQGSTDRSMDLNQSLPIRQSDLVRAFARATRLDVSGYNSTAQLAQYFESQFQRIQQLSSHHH

[28] = biological target: T4, Zinc finger protein mex-5 (Caenorhabditis elegans, UniProt Q9XUB2); assay: potency of MEX-5 RNA-binding blockers – biochemical, C. elegans, fluorescence polarization, dose response (AID 1960)
T4 sequence (Q9XUB2 whole entry): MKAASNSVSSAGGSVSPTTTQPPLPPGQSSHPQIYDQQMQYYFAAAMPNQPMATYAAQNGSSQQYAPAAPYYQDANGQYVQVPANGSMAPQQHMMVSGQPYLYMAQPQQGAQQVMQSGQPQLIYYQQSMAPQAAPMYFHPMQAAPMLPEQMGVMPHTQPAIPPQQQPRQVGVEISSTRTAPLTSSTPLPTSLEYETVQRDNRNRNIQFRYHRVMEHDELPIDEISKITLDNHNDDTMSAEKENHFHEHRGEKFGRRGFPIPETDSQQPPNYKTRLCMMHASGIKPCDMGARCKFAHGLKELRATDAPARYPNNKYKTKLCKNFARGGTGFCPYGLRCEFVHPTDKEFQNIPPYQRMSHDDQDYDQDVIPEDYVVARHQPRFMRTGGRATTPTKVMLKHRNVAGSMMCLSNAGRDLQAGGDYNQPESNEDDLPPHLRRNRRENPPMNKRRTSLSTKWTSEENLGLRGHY

DNA dC->dU-editing enzyme APOBEC-3G, sequence (Q9HC16 whole entry): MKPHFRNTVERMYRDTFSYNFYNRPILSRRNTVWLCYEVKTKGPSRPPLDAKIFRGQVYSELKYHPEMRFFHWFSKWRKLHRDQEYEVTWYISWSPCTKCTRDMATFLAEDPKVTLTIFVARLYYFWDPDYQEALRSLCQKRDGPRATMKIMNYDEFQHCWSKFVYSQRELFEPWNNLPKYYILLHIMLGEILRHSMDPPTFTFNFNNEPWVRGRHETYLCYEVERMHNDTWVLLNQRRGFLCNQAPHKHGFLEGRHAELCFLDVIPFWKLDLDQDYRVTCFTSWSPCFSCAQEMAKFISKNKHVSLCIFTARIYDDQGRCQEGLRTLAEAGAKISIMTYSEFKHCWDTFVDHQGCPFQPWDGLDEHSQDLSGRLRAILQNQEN
Potassium voltage-gated channel subfamily KQT member 2, sequence (O88943 whole entry): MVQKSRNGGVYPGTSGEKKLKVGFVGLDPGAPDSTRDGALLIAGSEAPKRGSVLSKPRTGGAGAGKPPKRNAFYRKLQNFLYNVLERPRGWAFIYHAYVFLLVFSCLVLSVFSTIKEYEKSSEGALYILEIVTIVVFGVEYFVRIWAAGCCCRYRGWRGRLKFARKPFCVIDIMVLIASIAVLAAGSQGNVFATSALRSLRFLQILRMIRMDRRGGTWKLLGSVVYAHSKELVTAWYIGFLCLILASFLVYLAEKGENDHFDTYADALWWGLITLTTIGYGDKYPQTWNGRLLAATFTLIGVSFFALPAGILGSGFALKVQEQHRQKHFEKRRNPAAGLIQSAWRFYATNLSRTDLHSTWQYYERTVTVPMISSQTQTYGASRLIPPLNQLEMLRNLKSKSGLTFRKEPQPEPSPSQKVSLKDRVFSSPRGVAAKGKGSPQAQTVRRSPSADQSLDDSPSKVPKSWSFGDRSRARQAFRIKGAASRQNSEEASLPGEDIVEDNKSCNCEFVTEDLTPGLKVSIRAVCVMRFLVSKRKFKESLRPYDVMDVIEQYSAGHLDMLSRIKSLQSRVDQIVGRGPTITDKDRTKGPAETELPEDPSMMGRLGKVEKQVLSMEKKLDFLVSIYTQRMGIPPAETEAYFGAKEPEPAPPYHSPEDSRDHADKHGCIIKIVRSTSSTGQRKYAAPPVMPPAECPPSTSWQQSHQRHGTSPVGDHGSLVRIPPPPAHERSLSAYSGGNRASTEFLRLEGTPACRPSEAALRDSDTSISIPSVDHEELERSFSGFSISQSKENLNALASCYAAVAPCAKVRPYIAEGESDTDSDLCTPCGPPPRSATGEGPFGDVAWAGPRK
DNA dC->dU-editing enzyme APOBEC-3A, sequence (P31941 whole entry): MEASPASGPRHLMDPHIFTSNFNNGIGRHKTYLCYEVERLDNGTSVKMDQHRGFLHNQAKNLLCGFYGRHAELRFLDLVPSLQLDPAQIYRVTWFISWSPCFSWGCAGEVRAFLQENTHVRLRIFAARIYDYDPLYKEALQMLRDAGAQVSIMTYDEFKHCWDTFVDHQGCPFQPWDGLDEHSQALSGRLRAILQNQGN
DNA damage-inducible transcript 3 protein, sequence (P35639 whole entry): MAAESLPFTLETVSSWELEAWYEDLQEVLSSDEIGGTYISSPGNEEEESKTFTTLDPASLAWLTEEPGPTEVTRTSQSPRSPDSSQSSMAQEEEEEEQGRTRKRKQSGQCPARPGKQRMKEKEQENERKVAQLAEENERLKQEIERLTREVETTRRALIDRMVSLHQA
Ion channel NompC, sequence (Q7T1G6 whole entry): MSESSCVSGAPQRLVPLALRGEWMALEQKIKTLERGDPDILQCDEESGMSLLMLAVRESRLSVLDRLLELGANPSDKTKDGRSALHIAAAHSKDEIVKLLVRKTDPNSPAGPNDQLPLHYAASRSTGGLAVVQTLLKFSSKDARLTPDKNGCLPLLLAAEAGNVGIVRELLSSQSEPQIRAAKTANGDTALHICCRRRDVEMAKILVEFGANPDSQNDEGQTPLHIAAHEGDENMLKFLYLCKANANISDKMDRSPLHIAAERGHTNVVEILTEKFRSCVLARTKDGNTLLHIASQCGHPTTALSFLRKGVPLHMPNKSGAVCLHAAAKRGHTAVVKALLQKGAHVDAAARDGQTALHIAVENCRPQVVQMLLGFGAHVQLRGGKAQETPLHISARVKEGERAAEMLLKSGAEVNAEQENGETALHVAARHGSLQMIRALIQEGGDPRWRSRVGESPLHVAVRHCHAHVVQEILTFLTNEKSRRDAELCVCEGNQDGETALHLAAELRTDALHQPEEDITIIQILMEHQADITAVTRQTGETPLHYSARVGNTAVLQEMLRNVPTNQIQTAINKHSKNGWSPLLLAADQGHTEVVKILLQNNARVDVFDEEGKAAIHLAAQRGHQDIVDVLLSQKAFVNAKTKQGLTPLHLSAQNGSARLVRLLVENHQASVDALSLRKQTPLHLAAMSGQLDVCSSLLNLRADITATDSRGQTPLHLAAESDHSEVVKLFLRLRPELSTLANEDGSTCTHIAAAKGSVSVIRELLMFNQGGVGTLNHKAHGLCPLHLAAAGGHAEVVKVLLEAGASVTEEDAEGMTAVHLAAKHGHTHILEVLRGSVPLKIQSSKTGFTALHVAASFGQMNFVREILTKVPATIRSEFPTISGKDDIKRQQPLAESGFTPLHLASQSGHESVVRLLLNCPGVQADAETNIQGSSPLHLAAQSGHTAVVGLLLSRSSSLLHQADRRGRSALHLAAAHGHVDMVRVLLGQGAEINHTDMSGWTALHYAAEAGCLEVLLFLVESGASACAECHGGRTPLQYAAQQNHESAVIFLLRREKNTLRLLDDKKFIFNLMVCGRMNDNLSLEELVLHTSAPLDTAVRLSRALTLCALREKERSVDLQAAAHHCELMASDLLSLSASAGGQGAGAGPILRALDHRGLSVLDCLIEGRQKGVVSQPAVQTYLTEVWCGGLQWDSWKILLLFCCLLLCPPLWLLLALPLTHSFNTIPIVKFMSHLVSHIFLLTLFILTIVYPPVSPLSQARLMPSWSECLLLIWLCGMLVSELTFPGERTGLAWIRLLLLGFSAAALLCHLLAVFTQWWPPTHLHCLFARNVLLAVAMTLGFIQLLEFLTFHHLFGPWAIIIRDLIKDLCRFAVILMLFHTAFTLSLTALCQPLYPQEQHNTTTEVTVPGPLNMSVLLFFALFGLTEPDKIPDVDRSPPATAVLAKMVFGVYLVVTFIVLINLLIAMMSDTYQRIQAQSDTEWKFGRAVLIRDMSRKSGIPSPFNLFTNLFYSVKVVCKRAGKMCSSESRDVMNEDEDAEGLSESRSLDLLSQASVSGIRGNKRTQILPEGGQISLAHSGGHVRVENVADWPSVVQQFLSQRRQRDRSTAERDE
G-protein coupled receptor 55, sequence (Q9Y2T6 whole entry): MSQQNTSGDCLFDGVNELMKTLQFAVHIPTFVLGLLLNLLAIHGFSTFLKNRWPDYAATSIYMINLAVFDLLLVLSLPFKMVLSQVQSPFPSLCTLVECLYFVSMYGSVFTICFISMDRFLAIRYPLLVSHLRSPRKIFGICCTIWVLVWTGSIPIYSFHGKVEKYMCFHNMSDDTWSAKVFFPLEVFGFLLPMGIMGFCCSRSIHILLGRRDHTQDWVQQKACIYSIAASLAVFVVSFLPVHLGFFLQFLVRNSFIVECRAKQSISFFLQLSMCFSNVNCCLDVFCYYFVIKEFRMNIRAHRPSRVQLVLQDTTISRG
Luciferin 4-monooxygenase, sequence (P08659 whole entry): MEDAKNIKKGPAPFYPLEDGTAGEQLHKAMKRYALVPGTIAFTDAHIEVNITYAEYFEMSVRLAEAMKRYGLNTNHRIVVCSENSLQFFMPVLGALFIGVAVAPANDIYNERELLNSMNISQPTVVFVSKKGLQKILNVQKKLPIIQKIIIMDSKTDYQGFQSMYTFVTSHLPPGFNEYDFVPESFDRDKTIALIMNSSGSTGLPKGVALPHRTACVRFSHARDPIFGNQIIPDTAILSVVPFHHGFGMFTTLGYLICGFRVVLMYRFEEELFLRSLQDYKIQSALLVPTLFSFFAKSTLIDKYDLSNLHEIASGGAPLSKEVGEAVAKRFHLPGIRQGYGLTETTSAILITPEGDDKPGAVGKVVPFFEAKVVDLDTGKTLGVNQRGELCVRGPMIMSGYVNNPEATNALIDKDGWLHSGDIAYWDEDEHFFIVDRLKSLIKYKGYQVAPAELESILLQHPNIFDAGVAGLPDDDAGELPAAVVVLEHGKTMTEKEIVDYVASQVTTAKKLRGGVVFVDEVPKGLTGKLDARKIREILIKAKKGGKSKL
FAD-linked sulfhydryl oxidase ALR, sequence (P55789 whole entry): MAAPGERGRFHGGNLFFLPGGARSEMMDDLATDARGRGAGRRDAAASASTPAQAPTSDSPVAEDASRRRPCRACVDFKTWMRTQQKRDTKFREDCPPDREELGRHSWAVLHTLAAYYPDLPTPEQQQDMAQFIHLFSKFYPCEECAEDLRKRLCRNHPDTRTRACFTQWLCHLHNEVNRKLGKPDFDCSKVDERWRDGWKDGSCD

## CCC(Cc1ccccc1)n1c(=S)[nH]c2ccccc2c1=O (stereo unspecified)
[1]
  Absolute IC50 (CHOP): 10 µM
Cells [2]
  EC50: > 350 µM (not active)
Cells [3]
  EC50: > 350 µM (not active)

## Cc1cncc(NC(=O)Nc2cccc(F)c2)c1
[4]
  EC50: 12.4 µM (active)

## Cc1cc(NC(=O)COC(=O)c2ccccc2S(=O)(=O)N(C)c2ccccc2)no1
Vero [5]
  IC50: > 25 µM (active)
Cells [6]
  IC50: 9.76 µM (active)
Vero [7]
  CC50: > 25 µM (active)
[8]
  CC50: 34.1 µM (active)

## CC1CCN(S(=O)(=O)c2ccc(Br)s2)CC1
Mucolipin-3
  EC50: > 29.9 µM (not active)
Ion channel NompC
  EC50: > 29.9 µM (not active)

## COc1ccccc1-c1cc(C(F)(F)F)nc(S(=O)(=O)CCCC(=O)Nc2cc(C)on2)n1
[9]
  AC50: 28 µM (active)
[1]
  Absolute IC50 (CHOP): 10 µM
[10]
  AC50: 6.57 µM (active)
[11]
  AC50: 16 µM (active)

## Cc1nc(NC(=O)c2csc3ccccc23)sc1C
Mucolipin-3
  EC50: 8.95 µM (active)
Ion channel NompC
  EC50: > 29.9 µM (not active)

## Cc1cc(NC(=O)Nc2cccc(F)c2)cnc1Br
[4]
  EC50: 6.61 µM (active)

## Cc1ccc(-c2nc3cc(NC(=O)C(C)C)ccc3o2)cc1
[12]
  EC50: 0.23 µM (active)
HT-1080
  EC50: > 50 µM (not active)

## CCCSc1ccc(-c2nn(-c3ccccc3)cc2/C=C(/C#N)C(=O)N2CCOCC2)cc1
[13]
  IC50: < 0.5 µM (active)

## Cc1ccc(C=Cc2ccc(N(C)C)cc2)[n+](C)c1
HEK293 [14]
  IC50: > 20 µM (inactive)
[15]
  IC50: 4.34 µM (active)
HEK293 [16]
  IC50: 16 µM (inactive)
HEK293 [17]
  IC50: 10.8 µM (active)
[18]
  EC50: 0.232 µM (active)
[19]
  EC50: > 160 µM (inconclusive)
[20]
  IC50: > 80 µM (inactive)
[21]
  EC50: 3.83 µM (active)
[22]
  IC50: 3.16 µM (active)
[23]
  AC50: 1.24 µM (active)
HEK293 [24]
  EC50: 4.84 µM (active)
[25]
  EC50: 16.1 µM (active)

## Cc1cc(N)n2nc(-c3ccccc3)c(-c3ccccc3)c2n1
[13]
  IC50: 2.35 µM (active)

## O=C(CSc1nnnn1-c1ccccc1)Nc1ccc(N2CCOCC2)c(Cl)c1
[15]
  IC50: 9.68 µM (active)
[22]
  IC50: 6.63 µM (active)

## O=C(Nc1cccnc1)Nc1ccc2c(c1)OCO2
[4]
  EC50: 152 µM (active)

## Cc1ccc(CN2C(=O)N/C(=C\c3cccn3-c3cccc(C(=O)O)c3)C2=O)cc1
[15]
  IC50: 25.7 µM (active)
[26]
  AC50: 12.8 µM (active)
[27]
  EC50: > 300 µM (not active)
[22]
  IC50: 10.3 µM (active)
[28]
  EC50: > 300 µM (not active)

Source: ChEMBL document CHEMBL1201862, “PubChem BioAssay data set” (2004)
